Values of other authors, collected in patent US5525347A, “Composition and methods for treating performance anxiety” (Medical University of South Carolina, priority 1995, dated 1996).
Counter-ions that a name gives are not always drawn.

Assays:
social phobia = settings: case reports; 10-120 mg
[1] = not given; remark: listed apart in the source

SMILES: CC(C)NCC(O)COc1cccc2ccccc12 (stereo not shown) [Propranolol Hydrochloride, 1-(Isopropylamino)-3-(1-napthyloxy)-2-propanol hydrochloride]
- efficacy in social phobia (social phobia): suggest efficacy
- Solubility in chloroform (chloroform): slightly soluble
- Solubility in ether (ether): practically insoluble
- Solubility in alcohol (volume of alcohol for 1 g): 20 mL
- Solubility in water (volume of water for 1 g): 20 mL
- stability to heat ([1]; heat): stable to heat
- stability in light ([1]; light): unstable in light
